Laboratory results published in ChEMBL document CHEMBL5236606, “Synthesis, Structure-Activity Relationships, and In Vivo Evaluation of Novel C-17 Amine Derivatives Based on GSK3640254 as HIV-1 Maturation Inhibitors with Broad Spectrum Activity” (J Med Chem, 2022).

Key:
[1] = Solubility of compound in FaSSIF at pH 6.5; type: ADME
[2] = Solubility of the compound in FeSSIF at pH 5.0; type: ADME
[3] = tested on: Human immunodeficiency virus 1; assay: Antiviral activity against wild type HIV-1 NLRepRlucP373S infected in human MT2 cells assessed as inhibition of viral growth measured after 4 to 5 days by Dual luciferase reporter assay; type: functional, organism-based; details: Human immunodeficiency virus 1, NLRepRlucP373S
[4] = tested on: Human immunodeficiency virus 1; assay: Antiviral activity against wild type HIV-1 NLRepRlucP373S harboring deltaV370 mutant infected in human MT2 cells assessed as inhibition of viral growth measured after 4 to 5 days by Dual luciferase reporter assay; type: functional, organism-based; details: Human immunodeficiency virus 1, NLRepRlucP373S
[5] = tested on: Human immunodeficiency virus 1; assay: Antiviral activity against wild type HIV-1 NLRepRlucP373S harboring T332S/V362I/prR41G mutant infected in human MT2 cells assessed as inhibition of viral growth measured after 4 to 5 days by Dual luciferase reporter assay; type: functional, organism-based; details: Human immunodeficiency virus 1, NLRepRlucP373S
[6] = Fold resistance, ratio of EC50 for antiviral activity against wild type HIV-1 NLRepRlucP373S infected in human MT2 cells assessed as inhibition of viral growth in presence of 10% FBS and 40% human serum supplemented with 27mg/mL of human serum albumin to EC50 for antiviral activity against wild type HIV-1 NLRepRlucP373S infected in human MT2 cells assessed as inhibition of viral growth; type: functional, Human immunodeficiency virus 1
[7] = Cytotoxicity against human MT2 cells assessed as reduction in cell viability; type: toxicity, cell-based
[8] = tested on: Human immunodeficiency virus 1; assay: Antiviral activity against wild type HIV-1 NLRepRlucP373S harboring A326T/V362I/V370A mutant infected in human MT2 cells assessed as inhibition of viral growth measured after 4 to 5 days by Dual luciferase reporter assay; type: functional, organism-based; details: Human immunodeficiency virus 1, NLRepRlucP373S
[9] = tested on: Human immunodeficiency virus 1; assay: Antiviral activity against wild type HIV-1 NLRepRlucP373S harboring R361K/V362I/L363M mutant infected in human MT2 cells assessed as inhibition of viral growth measured after 4 to 5 days by Dual luciferase reporter assay; type: functional, organism-based; details: Human immunodeficiency virus 1, NLRepRlucP373S
[10] = Metabolic stability in human liver microsomes assessed as half life at 0.5 uM in presence of NADPH by LC-MS/MS analysis; type: ADME, Microsome
[11] = Metabolic stability in rat liver microsomes assessed as half life at 0.5 uM in presence of NADPH by LC-MS/MS analysis; type: ADME, Microsome
[12] = Metabolic stability in dog liver microsomes assessed as half life at 0.5 uM in presence of NADPH by LC-MS/MS analysis; type: ADME, Canis lupus familiaris, Microsome
Albumin = Albumin (Homo sapiens, UniProt P02768); assay: Protein binding in human serum albumin assessed as fraction bound at 53 nM incubated for 1 hrs by ultracentrifugation method; type: ADME, cell-free; details: read-out: PPB (converted)
Chain of Albumin (P02768 whole entry): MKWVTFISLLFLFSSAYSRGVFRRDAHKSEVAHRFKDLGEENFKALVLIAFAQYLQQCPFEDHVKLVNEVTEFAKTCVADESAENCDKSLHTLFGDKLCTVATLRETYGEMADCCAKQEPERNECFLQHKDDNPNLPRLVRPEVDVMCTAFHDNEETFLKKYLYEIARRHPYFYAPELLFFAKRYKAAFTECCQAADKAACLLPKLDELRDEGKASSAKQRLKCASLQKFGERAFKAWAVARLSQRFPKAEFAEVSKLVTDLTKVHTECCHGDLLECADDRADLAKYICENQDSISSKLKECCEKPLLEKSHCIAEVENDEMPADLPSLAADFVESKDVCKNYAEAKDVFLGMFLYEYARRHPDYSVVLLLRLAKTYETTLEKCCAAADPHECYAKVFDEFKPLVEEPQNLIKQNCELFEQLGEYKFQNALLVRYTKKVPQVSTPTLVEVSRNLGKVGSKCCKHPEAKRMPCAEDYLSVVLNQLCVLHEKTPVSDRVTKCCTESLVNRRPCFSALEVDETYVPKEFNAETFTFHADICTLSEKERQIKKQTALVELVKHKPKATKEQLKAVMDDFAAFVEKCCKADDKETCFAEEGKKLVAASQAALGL

[13] = Clearance in Sprague-Dawley rat at 1 mg/kg, iv by LC-MS/MS analysis; type: ADME, organism-based; details: in vivo
[14] = Volume of distribution at steady state in Sprague-Dawley rat at 1 mg/kg, iv by LC-MS/MS analysis; type: ADME, organism-based; details: in vivo, read-out: Vdss
[15] = MRT in Sprague-Dawley rat at 1 mg/kg, iv by LC-MS/MS analysis; type: ADME, organism-based; details: in vivo
[16] = tested on: Human immunodeficiency virus 1; assay: Antiviral activity against wild type HIV-1 NLRepRlucP373S infected in human MT2 cells assessed as inhibition of viral growth measured after 4 to 5 days in presence of 10% FBS and 40% human serum supplemented with 27 mg/mL of human serum albumin by Dual luciferase reporter assay; type: functional, organism-based; details: Human immunodeficiency virus 1, NLRepRlucP373S

SMILES	EC50 [3]	EC50 [5]	fold change (FC) [6]	CC50 [7]	EC50 [16]	also measured
C=C(C)[C@@H]1CC[C@]2(NCCN3CCS(=O)(=O)CC3)CC[C@]3(C)[C@H](CC[C@@H]4[C@@]5(C)CC=C(C6=CC[C@@](CF)(C(=O)O)CC6)C(C)(C)[C@@H]5CC[C@]43C)[C@@H]12.Cl.Cl	–	–	–	–	–	solubility [1]: 310 µM; solubility [2]: 800 µM
C=C(C)[C@@H]1CC[C@]2(NCCN3CCS(=O)(=O)CC3)CC[C@]3(C)[C@H](CC[C@@H]4[C@@]5(C)CC=C(C6=CC[C@@](CF)(C(=O)O)CC6)C(C)(C)[C@@H]5CC[C@]43C)[C@@H]12	3 nM	7 nM	4.6	15600 nM	–	EC50 [4]: 3 nM; EC50 [8]: 26 nM; EC50 [9]: 3 nM; half-life at 0.5 µM [10]: 1.83 h; half-life at 0.5 µM [11]: 1.45 h; half-life at 0.5 µM [12]: 1.47 h; fraction unbound at 1 h, 0.053 µM (Albumin): 0.14; clearance [13]: 6.5 mL/min/kg; Vd [14]: 1.8 L/kg; MRT [15]: 4.9 h
C=C(C)[C@@H]1CC[C@]2(NCCCC(C)(C)O)CC[C@]3(C)[C@H](CC[C@@H]4[C@@]5(C)CC=C(C6=CC[C@](CF)(C(=O)O)CC6)C(C)(C)[C@@H]5CC[C@]43C)[C@@H]12	14 nM	44 nM	6.3	7500 nM	84 nM	–
C=C(C)[C@@H]1CC[C@]2(NCCC3CCOCC3)CC[C@]3(C)[C@H](CC[C@@H]4[C@@]5(C)CC=C(C6=CC[C@](CF)(C(=O)O)CC6)C(C)(C)[C@@H]5CC[C@]43C)[C@@H]12	30 nM	160 nM	33	13000 nM	980 nM	–
C=C(C)[C@@H]1CC[C@]2(NCC[C@]3(O)CC[C@@](C)(O)CC3)CC[C@]3(C)[C@H](CC[C@@H]4[C@@]5(C)CC=C(C6=CC[C@](CF)(C(=O)O)CC6)C(C)(C)[C@@H]5CC[C@]43C)[C@@H]12	1.7 nM	6.1 nM	9.8	18000 nM	16 nM	–
C=C(C)[C@@H]1CC[C@]2(NCCC(C)C)CC[C@]3(C)[C@H](CC[C@@H]4[C@@]5(C)CC=C(C6=CC[C@](CF)(C(=O)O)CC6)C(C)(C)[C@@H]5CC[C@]43C)[C@@H]12	120 nM	930 nM	15	16000 nM	1760 nM	–
C=C(C)[C@@H]1CC[C@]2(NCCC3(O)CCN(S(C)(=O)=O)CC3)CC[C@]3(C)[C@H](CC[C@@H]4[C@@]5(C)CC=C(C6=CC[C@](CF)(C(=O)O)CC6)C(C)(C)[C@@H]5CC[C@]43C)[C@@H]12	2.6 nM	8.3 nM	73	23000 nM	19 nM	–
C=C(C)[C@@H]1CC[C@]2(NCCC3(O)CCOCC3)CC[C@]3(C)[C@H](CC[C@@H]4[C@@]5(C)CC=C(C6=CC[C@](CF)(C(=O)O)CC6)C(C)(C)[C@@H]5CC[C@]43C)[C@@H]12	2 nM	8.2 nM	15	9500 nM	30 nM	–
C=C(C)[C@@H]1CC[C@]2(NCCC3CCS(=O)(=O)CC3)CC[C@]3(C)[C@H](CC[C@@H]4[C@@]5(C)CC=C(C6=CC[C@](CF)(C(=O)O)CC6)C(C)(C)[C@@H]5CC[C@]43C)[C@@H]12	3.9 nM	14 nM	14	14000 nM	54 nM	–
C=C(C)[C@@H]1CC[C@]2(NCCC3(O)CCC3)CC[C@]3(C)[C@H](CC[C@@H]4[C@@]5(C)CC=C(C6=CC[C@](CF)(C(=O)O)CC6)C(C)(C)[C@@H]5CC[C@]43C)[C@@H]12	5.6 nM	16 nM	6.4	12000 nM	36 nM	–
C=C(C)[C@@H]1CC[C@]2(NCCN3CCN(S(C)(=O)=O)CC3)CC[C@]3(C)[C@H](CC[C@@H]4[C@@]5(C)CC=C(C6=CC[C@](CF)(C(=O)O)CC6)C(C)(C)[C@@H]5CC[C@]43C)[C@@H]12	2 nM	5.7 nM	9	11400 nM	18 nM	–
